# Results reported in ChEMBL document CHEMBL1123226, “Methotrexate analogues. 29. Effect of gamma-aminobutyric acid spacers between the pteroyl and glutamate moieties on enzyme binding and cell growth inhibition” (J Med Chem, 1986).
# Columns and labels:
# [1] = target: T1, Thymidylate synthase (Lactobacillus casei, UniProt P00469); assay: Compound was tested for its ability to inhibit thymidylate synthetase isolated from MTX-resistant Lactobacillus casei; set-up: species or system Lacticaseibacillus casei
# T1 sequence (P00469 whole entry): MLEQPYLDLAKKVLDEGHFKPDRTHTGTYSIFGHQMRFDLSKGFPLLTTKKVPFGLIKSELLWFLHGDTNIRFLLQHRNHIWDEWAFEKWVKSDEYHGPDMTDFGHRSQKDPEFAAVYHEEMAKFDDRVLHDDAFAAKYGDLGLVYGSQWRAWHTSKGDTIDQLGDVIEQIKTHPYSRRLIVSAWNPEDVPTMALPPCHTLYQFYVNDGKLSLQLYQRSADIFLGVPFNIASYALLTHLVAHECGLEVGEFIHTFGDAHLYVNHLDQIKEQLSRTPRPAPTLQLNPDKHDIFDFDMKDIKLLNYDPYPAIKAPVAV
# [2] = tested on: L1210; assay: Compound was tested for its ability to inhibit L1210 cell growth; type: functional, cell-based; conditions: Mus musculus
# [3] = target: T2, Dihydrofolate reductase (Mus musculus) (UniProt P00375); conditions: L1210
# T2 sequence (whole entry): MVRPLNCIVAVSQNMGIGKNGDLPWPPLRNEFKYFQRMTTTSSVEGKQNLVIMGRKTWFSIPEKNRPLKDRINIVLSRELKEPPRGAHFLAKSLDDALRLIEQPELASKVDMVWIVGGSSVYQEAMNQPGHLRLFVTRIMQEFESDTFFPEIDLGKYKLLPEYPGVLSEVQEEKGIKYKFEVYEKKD
# Description: Compound was tested for its ability to inhibit dihydrofolate reductase purified from murine L1210 cells, activity expressed as IC50/[E]
# [4] = target: T3, Dihydrofolate reductase (Mus musculus, UniProt P00375); assay: biochemical
# T3 sequence (P00375 whole entry): T2 sequence (whole entry)
# Description: Compound was tested for its ability to inhibit dihydrofolate reductase purified from murine L1210 cells
smiles,measurement,setting,value
CN(Cc1cnc2nc(N)nc(N)c2n1)c1ccc(C(=O)NCCCC(=O)NC(CCC(=O)O)C(=O)O)cc1 (stereo unspecified),Ki,[1],336 nM
same,IC50,[2],530 nM
same,IC50/[E],[3],0.82
same,IC50,[4],82 nM
CN(Cc1cnc2nc(N)nc(N)c2n1)c1ccc(C(=O)NCCCC(=O)NCCCC(=O)NCCCC(=O)NC(CCC(=O)O)C(=O)O)cc1 (stereo unspecified),Ki,[1],130 nM
same,IC50,[2],29000 nM
same,IC50/[E],[3],4.4
same,IC50,[4],310 nM
CN(Cc1cnc2nc(N)nc(N)c2n1)c1ccc(C(=O)NCCCC(=O)NCCCC(=O)NC(CCC(=O)O)C(=O)O)cc1 (stereo unspecified),Ki,[1],205 nM
same,IC50,[2],5600 nM
same,IC50/[E],[3],1.3
same,IC50,[4],90 nM
CN(Cc1cnc2nc(N)nc(N)c2n1)c1ccc(C(=O)NCCCC(=O)NCCCC(=O)NCCCC(=O)NCCCC(=O)NC(CCC(=O)O)C(=O)O)cc1 (stereo unspecified),Ki,[1],189 nM
same,IC50,[2],> 100000 nM
same,IC50/[E],[3],7.7
same,IC50,[4],540 nM
CN(Cc1cnc2nc(N)nc(N)c2n1)c1ccc(C(=O)NCCCC(=O)NCCCC(=O)NCCCC(=O)NCCCC(=O)NCCCC(=O)NC(CCC(=O)O)C(=O)O)cc1 (stereo unspecified),Ki,[1],172 nM
same,IC50,[2],> 100000 nM
same,IC50/[E],[3],12
same,IC50,[4],840 nM
CN(Cc1cnc2nc(N)nc(N)c2n1)c1ccc(C(=O)N[C@@H](CCC(=O)O)C(=O)O)cc1 [METHOTREXATE],IC50,[2],20 nM
